# Tests used:
# [1] = Compatibility in solution with 4500 MW polyacrylic acid polymer under acidic conditions; assay type: physicochemical
# [2] = system: Bacterial cocktail (Staphylococcus aureus ATCC 6538, Escherichia coli ATCC 11229, Enterobacter aerogenes ATCC 13048, Burkholderia cepacia ATCC 25416 …); assay: Preservative test over 28 days in 7 and 18.5 grain water, bacterial counts (Example 5); assay type: cell-based; conditions: 140 ppm with 2000 ppm monosodium citrate versus 300 ppm with no added acidity
# [3] = system: Yeast and mold cocktail (Canidia albicans ATCC 10231, Saccharomyces cerevisiae ATCC 834, Aspergillus niger ATCC 16404); assay: Preservative test over 28 days in 7 and 18.5 grain water, yeast and mold counts (Example 5); assay type: cell-based; conditions: 140 ppm with 2000 ppm monosodium citrate versus 200 ppm bis (3-aminopropyl) dodecylamine in hard water
# Method: For USP bacteria there must be no less than 2.0 log reduction from the initial inoculated count at 14 days, and no increase from the 14 days' count at 28 days. A result of “no increase” is defined as not more than 0.5 log higher than previous value. For additional standards examined the preservation capability of a composition is evaluated over a predetermined time (as identified in the Example) and the inhibition or reduction of microbial growth is assessed, without the requirement for complete elimination of the entire microbial inoculum.
# The survival of both bacterial cocktail and fungal cocktails (as described in prior Example) were monitored over 28 days.
# The yeast and mold inoculum was made up of equal parts of the organisms listed (incubated in sabourand agar at 26° C. for 3 days):
# [4] = system: yeast and mold inoculum cocktail (Canidia albicans ATCC 10231, Saccharomyces cerevisiae ATCC 834, Aspergillus niger ATCC 16404); conditions: over 3 weeks in sump solution; compared with the other evaluated preservatives; FIG. 1
# Method: In order to identify preservative systems for replacing Kathon CG-ICP (isothiazolinone blend) from solid rinse aid formulations, various potential preservatives were evaluated.
# For performance reasons, the preservatives were tested with the 4500 MW polyacrylic acid polymer and 10% level of monosodium citrate or fumaric acid.
# The test temperature was ambient (20° C.-26° C.) and exposure times were 0, 7, 14, 28 and 35 days.
# The preservatives were formulated at their upper concentration levels before triggering the use of personal protective equipment and measured fungi recovered and pH.
behaviour in solution with the 4500 MW polyacrylic acid polymer [1],Structure (SMILES),"inhibition of microorganisms (especially bacteria), comparison [2]","preservation performance, comparison [3]",impact at reducing fungi (mean log fungi reduction) [4]
precipitate out of solution,"CCCCCCCCCCCCN(CCCN)CCCN [bis (3-aminopropyl) dodecylamine, Bis (3-aminopropyl) dodecylamine]",,,
,"On1ccccc1=S.[Na] [sodium pyrithione, 1-hydroxy-2(1H)-pyridinethione, sodium salt]",much more effective at inhibiting microorganisms,outperformed,greatest impact at reducing fungi

# Reference: US11312925B2, “Pyrithione preservative system and C1-C12 ethoxylated alcohol in hard surface cleaning products” (ECOLAB USA INC., priority 2015, dated 2022)
